Assay results taken from patent US12428406B2 (PMV Pharmaceuticals, Inc., priority 2019, dated 2025).

Target: T1, p53 Y220C (Homo sapiens, UniProt P04637, Y220C)
T1 construct: The recombinant protein was a truncation mutant containing only amino acids 94-312 of p53; made in house; host or cells: E. coli
Assay: In vitro DNA binding activity assay (HTRF / TR-FRET): stabilization of p53 Y220C and increase of its DNA binding activity
Format: biochemical
Details: recombinant His-tagged p53 Y220C DNA binding domain (aa 94-312), biotin-labeled consensus DNA, incubated at 27° C. or 29° C. for 60 min
Summary of the method: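 Homogeneous time-resolved fluorescence with E. coli-derived p53 Y220C and biotinylated consensus DNA. Room-temperature incubations of 15 and 20 min precede reading. SC150 denotes the compound concentration required for 50% increased DNA binding.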

T1 sequence (P04637 94-312, change not shown): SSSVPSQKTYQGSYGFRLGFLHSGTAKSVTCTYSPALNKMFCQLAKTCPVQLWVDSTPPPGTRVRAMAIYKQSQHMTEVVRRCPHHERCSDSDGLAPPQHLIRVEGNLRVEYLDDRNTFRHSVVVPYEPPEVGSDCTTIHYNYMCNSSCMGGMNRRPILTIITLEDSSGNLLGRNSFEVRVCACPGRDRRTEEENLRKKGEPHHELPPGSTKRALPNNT

Question: With `COc1cc(S(=O)(=O)NC2CCOCC2)ccc1NCC#Cc1cc2c(N[C@H]3CC[C@@H](N(C)C)CC3)cccc2n1CC(F)(F)F` [Compound 51A, 3-methoxy-N-(oxan-4-yl)-4-{[3-(4-{[(1S,4S)-4-(dimethylamino)cyclohexyl]amino}-1-(2,2,2-trifluoroethyl)-1H-indol-2-yl)prop-2-yn-1-yl]amino}benzene-1-sulfonamide] as the molecule, how does the “SC150 (concentration of the compound required to increase the DNA binding activity by 50%)” value read?
Answer: + (+ = 0 μM ≤ SC150 < 0.05 μM)

Question: With `COc1cc(S(N)(=O)=O)ccc1NCC#Cc1cc2c(NC3CCN(C[C@@H](O)CO)CC3)cccc2n1CC(F)(F)F` [Compound 550A, (rac)-4-({3-[4-({1-[2,3-dihydroxypropyl]piperidin-4-yl}amino)-1-(2,2,2-trifluoroethyl)-1H-indol-2-yl]prop-2-yn-1-yl}amino)-3-methoxybenzene-1-sulfonamide] as the molecule, how does the “SC150 (concentration of the compound required to increase the DNA binding activity by 50%)” value read?
Answer: + (+ = 0 μM ≤ SC150 < 0.05 μM)

Question: For `CNC(=O)c1ccc(NCC#Cc2cc3c(N[C@H]4CC[C@H](N5CCC(OC)C5)CC4)cccc3n2CC(F)(F)F)c(OC)c1` (stereo partly drawn) [Compound 428A, 3-methoxy-N-methyl-4-{[3-(4-{[(1R,4R)-4-(3-methoxypyrrolidin-1-yl)cyclohexyl]amino}-1-(2,2,2-trifluoroethyl)-1H-indol-2-yl)prop-2-yn-1-yl]amino}benzamide], which “SC150 (concentration of the compound required to increase the DNA binding activity by 50%)” value is on record?
Answer: + (+ = 0 μM ≤ SC150 < 0.05 μM)

Question: `COc1cc(S(=O)(=O)N(C)CCO)ccc1NCC#Cc1cc2c(NC3CCN(C4CCOCC4)CC3)cccc2n1CC(F)(F)F` [Compound 555A, N-(2-hydroxyethyl)-3-methoxy-N-methyl-4-{[3-(4-{[1-(oxan-4-yl)piperidin-4-yl]amino}-1-(2,2,2-trifluoroethyl)-1H-indol-2-yl)prop-2-yn-1-yl]amino}benzene-1-sulfonamide] was tested. Which “SC150 (concentration of the compound required to increase the DNA binding activity by 50%)” value did it give?
Answer: + (+ = 0 μM ≤ SC150 < 0.05 μM)

Question: With `CN1CCC(Nc2cccc3c2cc(C#CCNC(=O)c2cccnc2)n3CC(F)(F)F)CC1` [Compound 505A, N-(3-{4-[(1-methylpiperidin-4-yl)amino]-1-(2,2,2-trifluoroethyl)-1H-indol-2-yl}prop-2-yn-1-yl)pyridine-3-carboxamide] as the molecule, how does the “SC150 (concentration of the compound required to increase the DNA binding activity by 50%)” value read?
Answer: +++ (+++ = 0.1 μM ≤ SC150 < 0.2 μM)

Question: `CNC(=O)c1ccc(NCC#Cc2cc3c(N[C@H]4CC[C@@H](N5CCC6(CC5)COC6)CC4)cccc3n2CC(F)(F)F)c(OC)c1` [Compound 376A, 3-methoxy-N-methyl-4-{[3-(4-{[(1S,4S)-4-{2-oxa-7-azaspiro[3.5]nonan-7-yl}cyclohexyl]amino}-1-(2,2,2-trifluoroethyl)-1H-indol-2-yl)prop-2-yn-1-yl]amino}benzamide] was tested. Which “SC150 (concentration of the compound required to increase the DNA binding activity by 50%)” value did it give?
Answer: + (+ = 0 μM ≤ SC150 < 0.05 μM)

Question: For `COc1cc(S(C)(=O)=O)ccc1NCC#Cc1cc2c(N[C@H]3CC[C@H](N4CCOCC4)CC3)cccc2n1CC(F)F` [Compound 180A, 1-(2,2-difluoroethyl)-2-{3-[(4-methane-sulfonyl-2-methoxy-phenyl)amino]prop-1-yn-1-yl}-N-[(1R,4R)-4-(morpholin-4-yl)cyclo-hexyl]-1H-indol-4-amine], which “SC150 (concentration of the compound required to increase the DNA binding activity by 50%)” value is on record?
Answer: + (+ = 0 μM ≤ SC150 < 0.05 μM)

Question: `COc1cc(S(C)(=O)=O)ccc1NCC#Cc1cc2c(N[C@H]3CCNC[C@H]3F)cccc2n1CC(F)(F)F` [Compound 848A] was tested. Which “SC150 (concentration of the compound required to increase the DNA binding activity by 50%)” value did it give?
Answer: + (+ = 0 μM ≤ SC150 < 0.05 μM)

Question: `COc1cc(S(C)(=O)=O)ccc1NCC#Cc1cc2c(NC3CCCC(C(=O)O)C3)cccc2n1CC(F)(F)F` (centres unmarked) [Compound 36A, 3-[(2-{3-[(4-methane-sulfonyl-2-methoxy-phenyl)amino]prop-1-yn-1-yl}-1-(2,2,2-trifluoroethyl)-1H-indol-4-yl)amino] cyclohexane-1-carboxylic acid] was tested. Which “SC150 (concentration of the compound required to increase the DNA binding activity by 50%)” value did it give?
Answer: +++ (+++ = 0.1 μM ≤ SC150 < 0.2 μM)

Question: How did the “SC150 (concentration of the compound required to increase the DNA binding activity by 50%)” value turn out when `CCOC(=O)c1ccc(NCC#Cc2cc3c(N[C@@H]4CCN(CC)C[C@@H]4F)cccc3n2CC(F)(F)F)c(OC)c1` [Compound 823A] was run?
Answer: + (+ = 0 μM ≤ SC150 < 0.05 μM)

Question: How did the “SC150 (concentration of the compound required to increase the DNA binding activity by 50%)” value turn out when `C=C(C#N)Cn1c(C#CCNc2ccc(S(C)(=O)=O)cc2OC)cc2c(N[C@H]3CC[C@H](N(C)C)CC3)cccc21` [Compound 78A, 2-[(2-{3-[(4-methanesulfonyl-2-methoxyphenyl)amino]prop-1-yn-1-yl}-4-{[(1R,4R)-4-(dimethylamino)cyclohexyl]amino}-1H-indol-1-yl)methyl]prop-2-enenitrile] was run?
Answer: +++ (+++ = 0.1 μM ≤ SC150 < 0.2 μM)

Question: For `COCCN(C)[C@H]1CC[C@H](Nc2cccc3c2cc(C#CCNc2ccc(S(N)(=O)=O)cc2OC)n3CC(F)(F)F)CC1` [Compound 160A, 3-methoxy-4-{[3-(4-{[(1R,4R)-4-[(2-methoxyethyl)(methyl)amino]cyclohexyl]amino}-1-(2,2,2-trifluoroethyl)-1H-indol-2-yl)prop-2-yn-1-yl]amino}benzene-1-sulfonamide], which “SC150 (concentration of the compound required to increase the DNA binding activity by 50%)” value is on record?
Answer: + (+ = 0 μM ≤ SC150 < 0.05 μM)

Question: `COc1cc(NC2CCN(C)CC2)c2cc(C#CCNc3ccc(S(C)(=O)=O)cc3OC)n(CC(F)(F)F)c2c1` [Compound 487A, 2-{3-[(4-methanesulfonyl-2-methoxyphenyl)amino]prop-1-yn-1-yl}-6-methoxy-N-(1-methylpiperidin-4-yl)-1-(2,2,2-trifluoroethyl)-1H-indol-4-amine] was tested. Which “SC150 (concentration of the compound required to increase the DNA binding activity by 50%)” value did it give?
Answer: ++ (++ = 0.05 μM ≤ SC150 < 0.1 μM)

Question: With `CS(=O)(=O)c1ccc(NCC#Cc2cc3c(N[C@H]4CC[C@H](N5CC6(COC6)C5)CC4)cccc3n2CC(F)(F)F)c(OCC(F)(F)F)c1` [Compound 231A, 2-(3-{[4-methane-sulfonyl-2-(2,2,2-trifluoro-ethoxy)phenyl]amino}prop-1-yn-1-yl)-N-[(1R,4R)-4-{2-oxa-6-azaspiro[3.3]heptan-6-yl}cyclohexyl]-1-(2,2,2-trifluoroethyl)-1H-indol-4-amine] as the molecule, how does the “SC150 (concentration of the compound required to increase the DNA binding activity by 50%)” value read?
Answer: + (+ = 0 μM ≤ SC150 < 0.05 μM)

Question: How did the “SC150 (concentration of the compound required to increase the DNA binding activity by 50%)” value turn out when `COCC(O)CN1CCC(Nc2cccc3c2cc(C#CCNc2ccc(S(C)(=O)=O)cc2C)n3CC(F)(F)F)CC1` (centres unmarked) [Compound 703A, 1-{4-[(2-{3-[(4-methanesulfonyl-2-methylphenyl)amino]prop-1-yn-1-yl}-1-(2,2,2-trifluoroethyl)-1H-indol-4-yl)amino]piperidin-1-yl}-3-methoxypropan-2-ol] was run?
Answer: + (+ = 0 μM ≤ SC150 < 0.05 μM)

Question: How did the “SC150 (concentration of the compound required to increase the DNA binding activity by 50%)” value turn out when `COCCN1CC[C@H](Nc2cccc3c2cc(C#CCNc2ccc(C(=O)OC)cc2OC)n3CC(F)(F)F)[C@H](F)C1` [Compound 902A] was run?
Answer: + (+ = 0 μM ≤ SC150 < 0.05 μM)

Question: Which “SC150 (concentration of the compound required to increase the DNA binding activity by 50%)” value does the source give for `COc1cc(S(C)(=O)=O)ccc1NCC#Cc1cc2c(N[C@H]3CCO[C@@H](C)C3)cccc2n1CC(F)(F)F` [Compound 1017A, 2-{3-[(4-methanesulfonyl-2-methoxyphenyl)amino]prop-1-yn-1-yl}-N-[(2S,4S)-2-methyloxan-4-yl]-1-(2,2,2-trifluoroethyl)-1H-indol-4-amine] here?
Answer: + (+ = 0 μM ≤ SC150 < 0.05 μM)

Question: `COc1cc(S(C)(=O)=O)ccc1NCC#Cc1cc2c(NC3CCN(CC(COC(=O)C(C)C)OC(=O)C(C)C)CC3)cccc2n1CC(F)(F)F` (centres unmarked) [Compound 588A, 1-{4-[(2-{3-[(4-methanesulfonyl-2-methoxyphenyl)amino]prop-1-yn-1-yl}-1-(2,2,2-trifluoroethyl)-1H-indol-4-yl)amino]piperidin-1-yl}-3-[(2-methylpropanoyl)oxy]propan-2-yl 2-methylpropanoate] was tested. Which “SC150 (concentration of the compound required to increase the DNA binding activity by 50%)” value did it give?
Answer: +++ (+++ = 0.1 μM ≤ SC150 < 0.2 μM)

Question: How did the “SC150 (concentration of the compound required to increase the DNA binding activity by 50%)” value turn out when `COc1cc(S(C)(=O)=O)ccc1NCC#Cc1cc2c(N[C@H]3CCC[C@H](N)C3)cccc2n1CC(F)(F)F` (relative stereo) [Compound 26A, rel-(1R,3R)-N^1-(2-{3-[(4-methanesulfonyl-2-methoxyphenyl)amino]prop-1-yn-1-yl}-1-(2,2,2-trifluoroethyl)-1H-indol-4-yl)cyclohexane-1,3-diamine] was run?
Answer: + (+ = 0 μM ≤ SC150 < 0.05 μM)

Question: For `COc1cc(S(C)(=O)=O)ccc1NCC#Cc1cc2c(NC3CCOCC3)cc(F)cc2n1CC(F)(F)F` [Compound 997A, 6-fluoro-2-{3-[(4-methanesulfonyl-2-methoxyphenyl)amino]prop-1-yn-1-yl}-N-(oxan-4-yl)-1-(2,2,2-trifluoroethyl)-1H-indol-4-amine], which “SC150 (concentration of the compound required to increase the DNA binding activity by 50%)” value is on record?
Answer: + (+ = 0 μM ≤ SC150 < 0.05 μM)

Question: For `COc1cc(S(=O)(=O)N(C)C)ccc1NCC#Cc1cc2c(NC3CCN(C)CC3)cccc2n1CC(F)(F)F` [Compound 473A, 3-methoxy-N,N-dimethyl-4-[(3-{4-[(1-methylpiperidin-4-yl)amino]-1-(2,2,2-trifluoroethyl)-1H-indol-2-yl}prop-2-yn-1-yl)amino]benzene-1-sulfonamide], which “SC150 (concentration of the compound required to increase the DNA binding activity by 50%)” value is on record?
Answer: + (+ = 0 μM ≤ SC150 < 0.05 μM)

Question: Which “SC150 (concentration of the compound required to increase the DNA binding activity by 50%)” value does the source give for `COc1cc(S(N)(=O)=O)ccc1NCC#Cc1cc2c(N[C@H]3CCN(C)C[C@H]3F)cccc2n1CC(F)(F)F` [Compound 790A, 4-{[3-(4-{[(3R,4S)-3-fluoro-1-methylpiperidin-4-yl]amino}-1-(2,2,2-trifluoroethyl)-1H-indol-2-yl)prop-2-yn-1-yl]amino}-3-methoxybenzene-1-sulfonamide] here?
Answer: + (+ = 0 μM ≤ SC150 < 0.05 μM)

Question: How did the “SC150 (concentration of the compound required to increase the DNA binding activity by 50%)” value turn out when `COCCN(C)S(=O)(=O)c1ccc(NCC#Cc2cc3c(NC4CCN(CC(O)CO)CC4)cccc3n2CC(F)(F)F)c(OC)c1` (centres unmarked) [Compound 572A, 4-{[3-(4-{[1-(2,3-dihydroxypropyl)piperidin-4-yl]amino}-1-(2,2,2-trifluoroethyl)-1H-indol-2-yl)prop-2-yn-1-yl]amino}-3-methoxy-N-(2-methoxyethyl)-N-methylbenzene-1-sulfonamide] was run?
Answer: + (+ = 0 μM ≤ SC150 < 0.05 μM)
